In US6211244A, “Calcium receptor-active compounds” (priority 1995, dated 2001):
Where a name gives a salt, the structure may show the parent alone.

Target: T1, human calcium receptor (Homo sapiens, UniProt P41180, R990G)
T1 construct: expressed in transfected cells; host or cells: HEK 293
T1 sequence (P41180 20-1078 R990G): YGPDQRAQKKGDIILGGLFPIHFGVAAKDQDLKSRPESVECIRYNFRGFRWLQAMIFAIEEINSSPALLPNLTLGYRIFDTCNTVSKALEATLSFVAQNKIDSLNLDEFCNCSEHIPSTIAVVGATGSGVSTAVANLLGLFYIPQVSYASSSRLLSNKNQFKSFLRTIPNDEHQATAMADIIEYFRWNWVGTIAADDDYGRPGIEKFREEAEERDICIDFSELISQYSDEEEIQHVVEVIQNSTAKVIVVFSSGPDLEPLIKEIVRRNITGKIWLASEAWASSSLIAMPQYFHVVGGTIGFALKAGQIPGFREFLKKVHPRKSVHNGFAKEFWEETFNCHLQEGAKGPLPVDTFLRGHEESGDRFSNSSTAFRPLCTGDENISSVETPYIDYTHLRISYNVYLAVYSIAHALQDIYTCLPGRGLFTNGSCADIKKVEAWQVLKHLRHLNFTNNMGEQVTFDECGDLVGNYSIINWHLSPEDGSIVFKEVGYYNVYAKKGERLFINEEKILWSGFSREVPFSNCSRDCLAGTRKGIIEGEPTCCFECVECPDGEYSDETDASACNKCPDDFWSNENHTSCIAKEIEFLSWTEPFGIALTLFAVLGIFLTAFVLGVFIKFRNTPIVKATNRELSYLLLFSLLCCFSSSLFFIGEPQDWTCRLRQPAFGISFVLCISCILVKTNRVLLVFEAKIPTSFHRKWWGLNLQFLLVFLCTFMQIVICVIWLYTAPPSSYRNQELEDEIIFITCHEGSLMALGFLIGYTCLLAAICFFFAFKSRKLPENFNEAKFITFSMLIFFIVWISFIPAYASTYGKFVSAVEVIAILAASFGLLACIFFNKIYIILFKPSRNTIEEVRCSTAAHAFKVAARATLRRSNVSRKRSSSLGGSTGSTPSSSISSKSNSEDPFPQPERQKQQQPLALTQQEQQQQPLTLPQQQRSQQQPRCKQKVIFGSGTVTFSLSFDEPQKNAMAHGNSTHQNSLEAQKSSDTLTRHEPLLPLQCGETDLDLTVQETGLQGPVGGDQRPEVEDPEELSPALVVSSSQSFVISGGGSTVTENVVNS
Test: increases in [Ca^2+ ]i in HEK-293 cells expressing the human calcium receptor (fura-2 loaded HEK 293/pHuPCaR4.0 cells), % activity
Assay type: cell-based
Conditions: for activity at […]: HEK293

SMILES	% activity (33 ng/mL) [%]	% activity (330 ng/mL) [%]	% activity (3300 ng/mL) [%]	activity at […] (33 ng/mL) [%]	activity at […] (330 ng/mL) [%]
CC(NCCC(c1ccccc1)c1ccccc1)c1ccccc1F (stereo not drawn) [Compound 3A]	7	41			
Cc1cccc(C(C)NCCC(c2ccccc2)c2ccccc2)c1 (stereo not drawn) [Compound 3M]	19	64			
CC(NCCCc1ccccc1)c1c[nH]c2ccccc12 (stereo not drawn) [Compound 2Q]	4	56			
COc1cccc(C(C)NCc2ccc3ccccc3c2)c1 (stereo not drawn) [Compound 10P]	74	102			
CC(N[C@H](C)c1ccc2ccccc2c1)c1ccc(C(C)(C)C)cc1 (stereo partly drawn) [Compound 13F]	85	122	125		
COc1cccc([C@@H](C)NCCCc2c(F)cccc2F)c1 [Compound 24L]	62	105			
COC(=O)c1cccc(C(C)NCc2ccc(OC)c(C)c2)c1 (stereo not drawn) [Compound 24U]	78	106	106		
COc1ccc(CNC(C)c2ccc(Br)cc2)cc1C (stereo not drawn) [Compound 23R]	54	86	104		
COc1cccc([C@@H](C)NCCCc2ccccc2OC)c1 [Compound 8U, N-3-(2-methoxyphenyl)-1-propyl-(R)-3-methoxy-α-methylbenzylamine hydrochloride]	82	129	123		
CC(C)Cc1ccc(C(C)CNC(C)c2cccc3ccccc23)cc1 (mixture of isomers) [Compound 14A]	10	78	98		
COc1ccc(CNC(C)c2cccc(C(F)(F)F)c2)cc1C (stereo not drawn) [Compound 24C]	87	113	116		
COc1cccc([C@@H](C)N[C@@H](C)CCc2cccc(C(F)(F)F)c2)c1 [Compound 21X]	51	101	119		
COc1ccc(CNC(C)c2ccccc2OC)cc1C (stereo not drawn) [Compound 23H]				77	114
COc1cccc(C(C)NCCCc2ccccc2F)c1 (stereo not drawn) [Compound 4M]	34	68			
COc1ccc(CNC(C)c2cccc(I)c2)cc1C (stereo not drawn) [Compound 23S]	53	97			
CC(COc1ccccc1)NC(C)c1ccccc1 (stereo not drawn) [Compound 5G]	16	58			
C[C@@H](NCCCc1cccc(OC(F)(F)F)c1)c1cccc2ccccc12 [Compound 24J]	75	103			
Cc1ccc(CN[C@H](C)c2cccc3ccccc23)cc1 [Compound 13P]	83	110			
COc1cccc(C(C)NCCC(C)c2ccc(Cl)cc2)c1 (stereo not drawn) [5B/5C, N-[3-methyl-3-(4-chlorophenyl)propyl]-1-(3-methoxyphenyl)ethylamine]	20	65			
COc1ccc([C@@H](C)N[C@@H](C)c2cccc(OC)c2)cc1 [Compound 16M, (S,R)-N-[1-(4-methoxyphenyl)ethyl]-1-(3-methoxyphenyl)ethylamine]	11	68	130		
